Assay results taken from patent publication US20210205253A1, “Use Of Stearic Acid For Preventing Or Treating Pulmonary Fibrosis” (THE ASAN FOUNDATION, priority 2018, published 2021).

How the values were obtained:
[1] = tested on: primary fibroblasts isolated from lung tissues of patients with idiopathic pulmonary fibrosis; assay: Collagen 1 and α-SMA expression in primary fibroblasts from IPF patients; format: cell-based, human; settings: 80 μM stearic acid
Procedure: In addition to the results in the Examples, the present inventors sought to verify the anti-fibrotic effect of stearic acid on fibroblasts derived from lung tissues in patients with idiopathic pulmonary fibrosis (IPF). For this purpose, after primary fibroblasts were isolated from lung tissues of the patients, and then the cells were treated with stearic acid at various concentrations for 24 hours, the expression levels of collagen 1 and α-SMA were measured (FIGS. 10A and 10B), fibroblasts obtained from 4 patients were treated with 80 μM stearic acid for 24 hours, and then the expression levels of collagen 1 and α-SMA were measured (FIG. 10C). In addition, after the expression of collagen type 1 and α-SMA was increased by inducing the fibrosis caused by TGF-β1 in patient-derived fibroblasts, the anti-fibrotic effect of stearic acid was verified (FIGS. 10D and 10E).

[2] = tested on: human primary fibroblasts; assay: Combined treatment of stearic acid and pirfenidone in human primary fibroblasts (western blotting); format: cell-based; settings: TGF-β 5 ng/ml; 40 μM stearic acid single treatment (Lane 4)
Procedure: (§1) The primary fibroblasts derived from the patients with idiopathic pulmonary fibrosis used in the following experiment were cultured for 7 to 10 days while cutting the lung tissue of the patient into 1×1 mm^2 slices, and then periodically exchanging a cell culture solution (Eagle's minimal essential medium; EMEM) supplemented with 100 unit/ml penicillin, 100 μg/ml streptomycin, and 10% fetal bovine serum (FBS) under conditions of 5% CO2 and 37° C., and cells of passage 2 to 5 were used for the experiment.
To verify the anti-fibrotic effect by the combined treatment of stearic acid and pirfenidone, which is a therapeutic agent for idiopathic pulmonary fibrosis, the human primary fibroblasts isolated by the above-described method were respectively or simultaneously treated with 5 ng/ml TGF-β, 40 μM stearic acid, and 400 or 800 μM pirfenidone for 24 hours, and then the expression levels of collagen type 1 (COL-1) and α-SMA, which are markers of fibrosis, were measured by western blotting, and the inhibitory rate was quantitatively analyzed by correcting the amount of each protein with the amount of actin, which is an intracellular control protein.

[3] = tested on: p-Smad2/3 and Smad7 in MRC-5 cells; assay: p-Smad2/3 and Smad7 expression in fibroblasts; format: cell-based, human; settings: 40 μM stearic acid pre-treatment 16 h, TGF-β1 1 h
Procedure: The present inventors pre-treated a human pulmonary fibroblast cell line MRC-5 with 40 μM stearic acid for 16 hours, treated the MRC-5 cells with TGF-β1 for 1 hour, and then examined the expression levels of p-Smad2/3 and Smad7 in order to elucidate the anti-fibrotic mechanism of stearic acid in human pulmonary fibroblasts (FIGS. 12A and 12B). Further, to investigate the effect of stearic acid on the production of reactive oxygen species (ROS), MRC-5 cells were pre-treated with 40 μM stearic acid for 16 hours, and cells treated with TGF-β1 for 1 hour were stained with DCF-DA and analyzed by FACS (FIG. 12C). Furthermore, MRC-5 cells were pre-treated with 5 mM N-acetylcysteine (NAC), which is an antioxidant, for 1 hour and treated with TGF-β1 for 1 hour, and then the expression of p-Smad2/3 was examined (FIG. 12D).

[4] = tested on: human primary fibroblasts; assay: Combined treatment of stearic acid and nintedanib in human primary fibroblasts; format: cell-based; settings: 40 μM stearic acid single treatment versus TGF single treatment
Procedure: as §1, with “experiment. To verify the anti-fibrotic effect by the combined treatment of stearic acid and nintedanib, which is another therapeutic agent for idiopathic pulmonary fibrosis, human primary fibroblasts were respectively or simultaneously treated with 5 ng/ml TGF-β, 40 μM stearic acid, and 1.5 or 2 μM nintedanib for 24 hours, and then the expression levels of collagen type 1 (COL-1) and α-SMA, which are markers of fibrosis, were measured, respectively.” for “experiment.”

[5] = primary fibroblasts from 4 patients with IPF, 24 h (FIG. 10C)

Structure (SMILES): CCCCCCCCCCCCCCCCCC(=O)O [stearic acid]
- basal level expression of collagen 1 ([1]; 24 h (FIGS. 10A, 10B)): significantly reduced
- basal level expression of α-SMA ([1]; 24 h (FIGS. 10A, 10B)): significantly reduced
- expression of collagen 1 ([1]; fibrosis induced by TGF-β1): significantly reduced
- expression of α-SMA ([1]; fibrosis induced by TGF-β1): significantly reduced
- basal level expression of collagen 1 [1, 5]: significantly reduced
- basal level expression of α-SMA [1, 5]: significantly reduced
- change in COL-1 [2]: insignificant
- α-SMA [2]: reduced
- expression of Smad 7 reduced by TGF-β1 [3]: restored
- expression of p-Smad2/3 induced by TGF-β1 [3]: inhibited
- expression level of COL-1 [4]: no change
- expression level of α-SMA [4]: no change
